Measurements published in patent US20230266302A1, “SYNTHESIS AND USE OF N-BENZYL SULFONAMIDES” (THE UNIVERSITY OF TULSA, priority 2020, published 2023).

Experiments:
Experiment in all cases: ATP level assay (CellTiter-Glo), percent of control
Type in all cases: cell-based
[1] = test system: MDA-MB (breast cancer); conditions: two hour incubation; for activity at 100 µM: 2 h, compound alone, control DMSO, read-out: POC (percent of control) MDA-MB
[2] = test system: PC3 (prostate cancer); conditions: two hour incubation; for activity at 100 µM: 2 h, compound alone, control DMSO, read-out: POC (percent of control) PC3
[3] = test system: T47D (breast cancer); conditions: two hour incubation; for activity at 100 µM: Homo sapiens, T47D, 2 h, compound alone, control DMSO, read-out: POC (percent of control) T47D
[4] = test system: HeLa (cervical cancer); conditions: two hour incubation; for activity at 100 µM: Homo sapiens, HeLa, 2 h, compound alone, control DMSO, read-out: POC (percent of control) HeLa
[5] = test system: MCF7 (breast cancer); conditions: two hour incubation; for activity at 100 µM: Homo sapiens, MCF7, 2 h, compound alone, control DMSO, read-out: POC (percent of control) MCF7
[6] = test system: HDF (normal cells); conditions: two hour incubation; for activity at 100 µM: 2 h, compound alone, control DMSO, read-out: POC (percent of control) HDF
[7] = test system: BxPC3 (pancreatic cancer); conditions: two hour incubation; for activity at 100 µM: Homo sapiens, BXPC-3, 2 h, compound alone, control DMSO, read-out: POC (percent of control) BxPC3
[8] = test system: SkBr3 (breast cancer); conditions: two hour incubation; for activity at 100 µM: Homo sapiens, SK-BR-3, 2 h, compound alone, control DMSO, read-out: POC (percent of control) SkBr3
[9] = test system: MCF10A (non-cancerous breast); conditions: two hour incubation; for activity at 100 µM: Homo sapiens, MCF-10A, 2 h, compound alone, control DMSO, read-out: POC (percent of control) MCF10A
[10] = test system: H293 (kidney cancer); conditions: two hour incubation; for activity at 100 µM: 2 h, compound alone, control DMSO, read-out: POC (percent of control) H293
[11] = test system: NCI-H196 (lung cancer); conditions: two hour incubation; for activity at 100 µM: NCI-H196, 2 h, compound alone, control DMSO, read-out: POC (percent of control) NCI-H196
[12] = compound 100 uM + 2DG (about 10-20 mM)
[13] = compound 100 uM + rotenone (approximately 1.25 μM)

SMILES | activity at 100 µM [1] | POC (percent of control) MDA-MB [1, 12] | POC (percent of control) MDA-MB [1, 13] | activity at 100 µM [2] | POC (percent of control) PC3 [2, 12] | POC (percent of control) PC3 [2, 13] | activity at 100 µM [3] | POC (percent of control) T47D [3, 12] | POC (percent of control) T47D [3, 13] | activity at 100 µM [4] | POC (percent of control) HeLa [4, 12] | POC (percent of control) HeLa [4, 13] | activity at 100 µM [5] | POC (percent of control) MCF7 [5, 12] | POC (percent of control) MCF7 [5, 13] | activity at 100 µM [6] | POC (percent of control) HDF [6, 12] | POC (percent of control) HDF [6, 13] | activity at 100 µM [7] | POC (percent of control) BxPC3 [7, 12] | also measured
Cc1ccc(S(=O)(=O)NCc2cscn2)cc1 [Compound 17, 4-methyl-N-(1,3-thiazol-4-ylmethyl)benzenesulfonamide] | 105% | 89.8% of control | 98.1% of control | 113% | 93.7% of control | 90.9% of control | 83% | 89.1% of control | 104.6% of control | 90.3% | 118.8% of control | 110.3% of control | 145% | 114.6% of control | 90.6% of control | 90.7% | 98% of control | 84.1% of control | 91.4% | 101.4% of control | POC (percent of control) BxPC3 [7, 13]: 75.7% of control; activity at 100 µM [8]: 90.1%; POC (percent of control) SkBr3 [8, 12]: 88.8% of control; POC (percent of control) SkBr3 [8, 13]: 95.4% of control; activity at 100 µM [9]: 92.4%; POC (percent of control) MCF10A [9, 12]: 97.1% of control; POC (percent of control) MCF10A [9, 13]: 91.6% of control; activity at 100 µM [10]: 80.4%; POC (percent of control) H293 [10, 12]: 85.8% of control; POC (percent of control) H293 [10, 13]: 74.9% of control; activity at 100 µM [11]: 96.8%; POC (percent of control) NCI-H196 [11, 12]: 103.8% of control; POC (percent of control) NCI-H196 [11, 13]: 89.4% of control
Cc1ccc(S(=O)(=O)NCc2nccs2)cc1 [Compound 19, 4-methyl-N-(1,3-thiazol-2-ylmethyl)benzenesulfonamide] | 104% | 89.5% of control | 112% of control | 108% | 127.1% of control | 98.9% of control | 91.5% | 87.4% of control | 86.7% of control | 104% | 94.8% of control | 109.3% of control | 134% | 104% of control | 92.1% of control | 92.5% | 98.9% of control | 87.3% of control | 96.2% | 98.4% of control | POC (percent of control) BxPC3 [7, 13]: 107.2% of control; activity at 100 µM [8]: 119%; POC (percent of control) SkBr3 [8, 12]: 105.9% of control; POC (percent of control) SkBr3 [8, 13]: 108.6% of control; activity at 100 µM [9]: 83.9%; POC (percent of control) MCF10A [9, 12]: 95.8% of control; POC (percent of control) MCF10A [9, 13]: 119.8% of control; activity at 100 µM [10]: 82.2%; POC (percent of control) H293 [10, 12]: 87.2% of control; POC (percent of control) H293 [10, 13]: 79.1% of control; activity at 100 µM [11]: 117%; POC (percent of control) NCI-H196 [11, 12]: 107.3% of control; POC (percent of control) NCI-H196 [11, 13]: 94.3% of control
O=[N+]([O-])c1cccc(S(=O)(=O)NCc2c[nH]c3ccccc23)c1 [Compound 25, N-(1H-indol-3-ylmethyl)-3-nitrobenzenesulfonamide] | 103% | 86.2% of control | 88.8% of control | 60.2% | 96.8% of control | 80.1% of control | 94.4% | 88.9% of control | 86.7% of control | 89.4% | 90.8% of control | 95.6% of control | 112% | 92.9% of control | 104.2% of control | 79.2% | 93.6% of control | 95.5% of control | 85.1% | 71.5% of control | POC (percent of control) BxPC3 [7, 13]: 78.2% of control; activity at 100 µM [8]: 112%; POC (percent of control) SkBr3 [8, 12]: 88.2% of control; POC (percent of control) SkBr3 [8, 13]: 104.1% of control; activity at 100 µM [9]: 95.7%; POC (percent of control) MCF10A [9, 12]: 98.3% of control; POC (percent of control) MCF10A [9, 13]: 80.4% of control; activity at 100 µM [10]: 99.7%; POC (percent of control) H293 [10, 12]: 79.6% of control; POC (percent of control) H293 [10, 13]: 68.8% of control; activity at 100 µM [11]: 305%; POC (percent of control) NCI-H196 [11, 12]: 92.9% of control; POC (percent of control) NCI-H196 [11, 13]: 83% of control
